Test results from patent US11602538B2, “Prophylaxis and treatment of cognitive dysfunction and decline” (The Florey Institute of Neuroscience and Mental Health, priority 2017, dated 2023).
“Also recorded” adds a separate entry of the source.

Experiments:
[1] = test system: mice receiving a controlled cortical impact traumatic brain injury (TBI); assay: Morris water maze after controlled cortical impact TBI; assay type: in vivo, mouse; details: treated post-TBI daily by oral gavage, 2% in SSV, vs SSV controls
Procedure: Trehalose (Sigma) has a generous safety profile in rodents and humans has been posted as “Generally Regarded as Safe” (GRAS) for human consumption by the U.S. Federal Drug Administration (FDA) in October 2000, is used as a food additive, and is also an excipient in many pharmaceuticals, making trehalose a safe, natural and pharmaceutically accepted product. In this study, it was supplied as a 2% w/v in standard suspension vehicle (SSV) solution via oral gavage at a dose of 0.1 ml to 10 g body weight. SSV solution was purchased from Sigma and contains 0.9% sodium chloride (NaCl), 0.5% Sodium carboxymethylcellulose (Na-CMC), 0.5% Benzyl alcohol, 0.4%, Tween 80 (polyoxyethylenesorbitan monooleate).
(§1) Surgical procedures and controlled cortical impact (CCI) have been previously described (see Portbury et al., 2015, Metallomics. doi:10.1039/c5mt00234f). Briefly, 3 month-old male C57B16 mice were anesthetized via intraperitoneal injection of 100 mg/kg ketamine and 10 mg/kg xylazine. A 10 mm mid-line incision was made over the skull, and the skin and fascia were reflected to make a 4 mm craniotomy on the central aspect of the right parietal bone using a motorized drill. Upon animal positioning in a stereotaxic frame a CCI injury was subsequently delivered (3 m/s velocity with a 1.5 mm penetration depth).
(§2) Three groups of animals were subjected to TBI as separate experiments. The first group of animals were treated daily with 2% trehalose in SSV solution at 0.1 ml per 10 g body weight via oral gavage for a period of 31 days or SSV solution following the TBI. […] The second groups of animals underwent an identical dosing procedure but were treated with either SSV or maltose as a disaccharide control for trehalose. […] A further group of animals was pre-treated with trehalose prior to TBI. These pre-treated mice received a daily treatment of 2% trehalose in SSV solution at 0.1 ml per 10 g body weight via oral gavage for 7 days prior to TBI. Following TBI, these animals received SSV solution only for the remaining duration of the experiment.
(§3) The Morris Water Maze (MWM) was used to assess the effect of trehalose on spatial learning and memory function following TBI. The pre-training acclimation day of the water maze was performed on day 23 of dosing, followed by six days of place discrimination training of four 90 second trials per day, conducted on days 24-29 of dosing. The probe trial was performed 24 hours after training on dosing day 30 to assess retention of the task. Data was analysed using the Ethovision automated tracking system. Animals were culled on day 31. Both experimental groups adhered to the same time lines of behavioral assessment. The open field assessment was performed on day 19 of dosing and the Y-maze assessment was performed on day 21 of dosing.
(§4) For LA-ICPMS samples, statistical analysis was carried out in Prism 7 (Graph-Pad) software. Analysis was carried out with a two-tailed t test with the level of significance set at p=0.05. For multiple comparisons two-way ANOVA was used to identify significant differences between ipsilateral and contralateral ROI's. For western blot analysis, images were produced using Image Studio Lite (version 4.0.21, LI-COR Biosciences) and subsequent statistical analysis was carried out in Prism 7 (Graph-Pad). All behavioral analysis was performed using Prism 7 (Graph-Pad).

[2] = test system: mice receiving a controlled cortical impact traumatic brain injury (TBI); assay: Y-maze assessment after TBI; assay type: in vivo, mouse; details: treated post-TBI, dosing day 21; vs SSV
Procedure: as §1, §2, §3, §4

OC[C@H]1O[C@H](O[C@H]2[C@H](O)[C@@H](O)C(O)O[C@@H]2CO)[C@H](O)[C@@H](O)[C@@H]1O (mixture of isomers) [maltose]
escape latency / acquisition of the task (learning component), Morris water maze ([1]; 0.1 ml per 10 g, training on dosing days 24-29): no such improvement; also recorded: no significant differences | probe day 24-hour task retention (recall component), Morris water maze ([1]; dosing day 30): no such improvement; also recorded: no significant differences | five-minute frequency of visits into the novel arm, Y-maze [2]: no significant preference for the novel arm; also recorded: no significant improvement | one-minute duration of time in the novel arm, Y-maze [2]: no significant improvement | one-minute frequency of visits into the novel arm, Y-maze [2]: no significant preference for the novel arm; also recorded: no significant improvement
